ChEMBL document CHEMBL5465560, “Selectivity Literature for EUbOPEN Chemogenomic Library” (2024)
Blank lines part the entries; values can stand above or below the compound they belong to.

Legend:
[1] = target: T1, Mitogen-activated protein kinase kinase kinase 19 (Homo sapiens) (UniProt Q56UN5); experiment: Selectivity interaction (KinomeScan (DiscoverX)) EUB0000655a MAP3K19; conditions: at 10 µM
T1 sequence (whole entry): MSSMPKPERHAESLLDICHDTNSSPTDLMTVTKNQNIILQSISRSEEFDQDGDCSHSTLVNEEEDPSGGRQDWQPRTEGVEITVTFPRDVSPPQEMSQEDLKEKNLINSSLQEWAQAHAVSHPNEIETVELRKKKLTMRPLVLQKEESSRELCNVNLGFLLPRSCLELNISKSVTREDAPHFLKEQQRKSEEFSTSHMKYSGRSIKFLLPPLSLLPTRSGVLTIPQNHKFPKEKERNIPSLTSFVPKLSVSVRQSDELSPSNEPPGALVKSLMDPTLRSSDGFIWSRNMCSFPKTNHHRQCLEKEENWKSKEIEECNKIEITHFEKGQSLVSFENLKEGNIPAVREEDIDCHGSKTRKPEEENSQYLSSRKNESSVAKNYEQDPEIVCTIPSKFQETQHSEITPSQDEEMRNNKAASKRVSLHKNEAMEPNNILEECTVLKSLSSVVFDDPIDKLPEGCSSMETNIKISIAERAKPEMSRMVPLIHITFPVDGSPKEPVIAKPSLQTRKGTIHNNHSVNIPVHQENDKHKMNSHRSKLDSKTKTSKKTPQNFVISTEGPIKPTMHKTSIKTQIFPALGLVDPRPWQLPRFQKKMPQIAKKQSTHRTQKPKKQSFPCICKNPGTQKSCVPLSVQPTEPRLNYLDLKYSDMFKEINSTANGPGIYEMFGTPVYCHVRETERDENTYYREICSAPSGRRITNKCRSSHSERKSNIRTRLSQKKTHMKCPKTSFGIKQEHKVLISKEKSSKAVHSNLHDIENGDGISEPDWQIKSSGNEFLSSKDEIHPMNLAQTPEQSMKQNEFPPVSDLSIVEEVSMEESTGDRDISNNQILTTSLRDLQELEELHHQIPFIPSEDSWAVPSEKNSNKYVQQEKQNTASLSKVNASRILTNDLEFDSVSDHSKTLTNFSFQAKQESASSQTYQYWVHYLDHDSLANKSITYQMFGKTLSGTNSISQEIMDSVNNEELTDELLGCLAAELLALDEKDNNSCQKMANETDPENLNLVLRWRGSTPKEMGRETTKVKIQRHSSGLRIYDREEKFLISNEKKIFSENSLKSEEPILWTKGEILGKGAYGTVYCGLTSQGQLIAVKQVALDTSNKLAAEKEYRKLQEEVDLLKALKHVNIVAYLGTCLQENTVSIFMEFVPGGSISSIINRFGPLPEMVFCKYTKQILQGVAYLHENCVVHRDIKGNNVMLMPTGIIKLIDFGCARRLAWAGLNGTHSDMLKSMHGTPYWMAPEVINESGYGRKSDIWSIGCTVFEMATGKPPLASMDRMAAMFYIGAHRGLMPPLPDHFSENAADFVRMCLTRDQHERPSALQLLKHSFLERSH

[2] = target: Serine/threonine-protein kinase pim-1 (Homo sapiens, UniProt P11309); experiment: Selectivity interaction (KinomeScan (DiscoverX)) EUB0000655a PIM1; conditions: at 10 µM
Serine/threonine-protein kinase pim-1, sequence (P11309 whole entry, looked up): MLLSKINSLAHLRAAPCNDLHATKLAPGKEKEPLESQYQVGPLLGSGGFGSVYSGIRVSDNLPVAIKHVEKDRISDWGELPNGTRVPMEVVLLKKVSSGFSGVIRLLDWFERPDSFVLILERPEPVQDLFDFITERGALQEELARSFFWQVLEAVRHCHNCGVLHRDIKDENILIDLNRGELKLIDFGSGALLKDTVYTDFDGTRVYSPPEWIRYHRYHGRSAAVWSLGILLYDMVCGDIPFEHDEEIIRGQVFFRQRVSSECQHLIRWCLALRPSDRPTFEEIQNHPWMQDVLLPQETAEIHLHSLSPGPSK

[3] = target: CDK9/cyclin T1 (Homo sapiens) (UniProt O60563+P50750); experiment: Selectivity interaction (Upstate Kinase Profiler service (Millipore)) EUB0000056c CDK9; format: protein-complex assay; conditions: at 1 µM
[4] = target: Serine/threonine-protein kinase PLK2 (Homo sapiens, UniProt Q9NYY3); conditions: at 10 µM
Serine/threonine-protein kinase PLK2, sequence (Q9NYY3 whole entry, looked up): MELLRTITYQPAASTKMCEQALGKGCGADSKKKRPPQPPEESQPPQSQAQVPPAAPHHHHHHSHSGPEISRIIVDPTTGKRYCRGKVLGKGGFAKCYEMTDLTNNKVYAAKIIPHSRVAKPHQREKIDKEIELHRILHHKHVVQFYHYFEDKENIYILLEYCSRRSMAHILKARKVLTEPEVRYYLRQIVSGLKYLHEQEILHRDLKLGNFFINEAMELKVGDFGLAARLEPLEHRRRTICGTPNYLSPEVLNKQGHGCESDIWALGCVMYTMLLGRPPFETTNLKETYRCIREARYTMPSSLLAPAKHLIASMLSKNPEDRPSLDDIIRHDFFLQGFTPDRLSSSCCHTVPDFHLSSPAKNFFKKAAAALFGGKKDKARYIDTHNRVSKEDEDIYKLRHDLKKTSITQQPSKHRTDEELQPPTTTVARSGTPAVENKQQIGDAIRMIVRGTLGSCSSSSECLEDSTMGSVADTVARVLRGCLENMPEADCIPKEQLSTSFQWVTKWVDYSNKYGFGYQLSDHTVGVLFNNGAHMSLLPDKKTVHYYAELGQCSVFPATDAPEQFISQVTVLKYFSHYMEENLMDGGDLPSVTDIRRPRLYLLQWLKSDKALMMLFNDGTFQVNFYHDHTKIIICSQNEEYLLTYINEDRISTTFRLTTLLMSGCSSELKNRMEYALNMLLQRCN

[5] = target: Eukaryotic elongation factor 2 kinase (Homo sapiens, UniProt O00418)
Eukaryotic elongation factor 2 kinase, sequence (O00418 whole entry): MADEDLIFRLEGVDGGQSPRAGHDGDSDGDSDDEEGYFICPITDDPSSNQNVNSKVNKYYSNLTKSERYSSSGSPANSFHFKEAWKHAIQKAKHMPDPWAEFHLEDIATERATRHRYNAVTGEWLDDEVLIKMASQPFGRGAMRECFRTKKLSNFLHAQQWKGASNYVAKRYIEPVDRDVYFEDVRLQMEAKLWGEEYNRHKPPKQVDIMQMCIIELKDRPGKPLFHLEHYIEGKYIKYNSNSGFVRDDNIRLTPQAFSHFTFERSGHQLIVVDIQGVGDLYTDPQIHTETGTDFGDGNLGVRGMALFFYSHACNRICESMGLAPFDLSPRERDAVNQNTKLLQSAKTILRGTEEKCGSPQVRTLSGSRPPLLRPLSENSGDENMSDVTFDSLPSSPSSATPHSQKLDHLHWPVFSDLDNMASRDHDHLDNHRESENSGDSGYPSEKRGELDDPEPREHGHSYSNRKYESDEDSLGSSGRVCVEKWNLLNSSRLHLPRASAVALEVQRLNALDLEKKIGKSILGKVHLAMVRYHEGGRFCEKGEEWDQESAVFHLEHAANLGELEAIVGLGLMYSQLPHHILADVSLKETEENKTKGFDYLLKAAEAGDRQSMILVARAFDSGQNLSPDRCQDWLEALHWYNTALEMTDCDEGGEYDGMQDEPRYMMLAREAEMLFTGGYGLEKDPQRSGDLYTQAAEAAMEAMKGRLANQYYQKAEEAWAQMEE

[6] = target: T2, Serine/threonine-protein kinase BRSK1 (Homo sapiens) (UniProt Q8TDC3); experiment: Selectivity interaction (KinomeScan (DiscoverX)) EUB0000229b BRSK1; conditions: at 10 µM
T2 sequence (whole entry): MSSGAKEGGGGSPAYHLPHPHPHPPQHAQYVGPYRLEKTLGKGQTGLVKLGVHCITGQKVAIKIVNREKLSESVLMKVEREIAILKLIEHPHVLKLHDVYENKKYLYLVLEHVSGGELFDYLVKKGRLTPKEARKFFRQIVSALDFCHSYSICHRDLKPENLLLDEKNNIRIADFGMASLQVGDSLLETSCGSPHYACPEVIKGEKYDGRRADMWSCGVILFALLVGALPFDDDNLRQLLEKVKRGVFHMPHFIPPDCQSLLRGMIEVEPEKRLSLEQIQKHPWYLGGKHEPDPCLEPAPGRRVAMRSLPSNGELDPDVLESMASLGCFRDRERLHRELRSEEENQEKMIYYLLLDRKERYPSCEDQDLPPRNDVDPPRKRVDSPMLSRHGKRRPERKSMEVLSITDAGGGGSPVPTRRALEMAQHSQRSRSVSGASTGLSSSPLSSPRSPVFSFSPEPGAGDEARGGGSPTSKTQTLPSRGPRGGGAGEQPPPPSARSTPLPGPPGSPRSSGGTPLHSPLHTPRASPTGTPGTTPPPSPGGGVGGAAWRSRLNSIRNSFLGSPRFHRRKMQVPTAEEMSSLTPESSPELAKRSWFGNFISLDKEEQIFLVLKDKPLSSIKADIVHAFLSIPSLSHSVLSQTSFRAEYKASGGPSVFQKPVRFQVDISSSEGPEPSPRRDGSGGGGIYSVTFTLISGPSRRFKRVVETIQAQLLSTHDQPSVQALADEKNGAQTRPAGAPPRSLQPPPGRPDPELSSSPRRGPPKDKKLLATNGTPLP

[7] = target: Homeodomain-interacting protein kinase 1 (Homo sapiens, UniProt Q86Z02); experiment: Selectivity interaction (Enzymatic assay (Eurofins)) EUB0001049a HIPK1
Homeodomain-interacting protein kinase 1, sequence (Q86Z02 whole entry): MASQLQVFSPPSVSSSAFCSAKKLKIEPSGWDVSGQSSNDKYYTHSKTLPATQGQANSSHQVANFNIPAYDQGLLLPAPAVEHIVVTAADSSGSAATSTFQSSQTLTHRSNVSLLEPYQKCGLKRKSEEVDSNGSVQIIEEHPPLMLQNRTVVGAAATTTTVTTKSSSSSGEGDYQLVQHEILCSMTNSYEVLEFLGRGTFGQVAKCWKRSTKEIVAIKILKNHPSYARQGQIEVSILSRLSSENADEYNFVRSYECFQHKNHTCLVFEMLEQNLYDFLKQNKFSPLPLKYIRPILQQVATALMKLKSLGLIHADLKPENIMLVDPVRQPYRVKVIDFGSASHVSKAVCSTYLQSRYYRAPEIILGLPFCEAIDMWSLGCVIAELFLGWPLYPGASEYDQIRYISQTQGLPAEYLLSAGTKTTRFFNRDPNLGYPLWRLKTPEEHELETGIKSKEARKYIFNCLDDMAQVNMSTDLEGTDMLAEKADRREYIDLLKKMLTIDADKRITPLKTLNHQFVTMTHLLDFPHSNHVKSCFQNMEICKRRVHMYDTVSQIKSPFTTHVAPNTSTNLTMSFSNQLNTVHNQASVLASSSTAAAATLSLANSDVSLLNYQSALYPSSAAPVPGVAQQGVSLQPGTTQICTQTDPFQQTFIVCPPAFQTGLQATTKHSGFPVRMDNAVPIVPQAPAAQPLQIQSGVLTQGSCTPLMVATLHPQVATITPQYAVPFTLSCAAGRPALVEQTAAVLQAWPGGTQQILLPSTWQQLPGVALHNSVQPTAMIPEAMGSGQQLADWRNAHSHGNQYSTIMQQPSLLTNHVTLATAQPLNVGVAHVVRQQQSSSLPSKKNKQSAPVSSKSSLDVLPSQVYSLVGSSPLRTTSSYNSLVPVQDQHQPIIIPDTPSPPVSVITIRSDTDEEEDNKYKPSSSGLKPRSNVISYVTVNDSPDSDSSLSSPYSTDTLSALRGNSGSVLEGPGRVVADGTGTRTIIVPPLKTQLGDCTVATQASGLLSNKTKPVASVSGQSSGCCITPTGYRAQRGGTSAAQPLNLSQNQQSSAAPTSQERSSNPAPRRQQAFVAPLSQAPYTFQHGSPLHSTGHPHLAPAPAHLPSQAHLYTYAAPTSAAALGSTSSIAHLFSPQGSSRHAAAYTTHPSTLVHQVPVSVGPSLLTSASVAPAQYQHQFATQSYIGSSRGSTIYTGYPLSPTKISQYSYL

[8] = target: Ephrin type-B receptor 4 (Homo sapiens, UniProt P54760); experiment: Selectivity interaction (Kinase panel (33PanQinase(R) Activity Assay)) EUB0000877a EPHB4
[9] = target: Mitogen-activated protein kinase 9 (Homo sapiens, UniProt P45984); experiment: Selectivity interaction (KinomeScan (DiscoverX)) EUB0000092b MAPK9; conditions: at 10 µM
Mitogen-activated protein kinase 9, sequence (P45984 whole entry, looked up): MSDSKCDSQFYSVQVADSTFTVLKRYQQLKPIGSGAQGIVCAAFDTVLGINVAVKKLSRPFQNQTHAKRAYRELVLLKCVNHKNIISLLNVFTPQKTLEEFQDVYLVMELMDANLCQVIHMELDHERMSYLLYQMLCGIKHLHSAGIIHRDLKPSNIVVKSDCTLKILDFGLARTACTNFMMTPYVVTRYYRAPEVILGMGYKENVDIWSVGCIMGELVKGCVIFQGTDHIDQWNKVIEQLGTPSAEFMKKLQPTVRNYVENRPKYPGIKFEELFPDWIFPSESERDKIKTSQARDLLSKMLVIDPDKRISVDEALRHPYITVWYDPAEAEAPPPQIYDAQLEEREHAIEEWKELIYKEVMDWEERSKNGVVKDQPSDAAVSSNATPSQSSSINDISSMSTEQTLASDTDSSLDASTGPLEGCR

[10] = target: MAP/microtubule affinity-regulating kinase 3 (Homo sapiens) (UniProt P27448); experiment: Selectivity interaction (KinomeScan (DiscoverX)) EUB0000695a MARK3; conditions: at 100 nM
MAP/microtubule affinity-regulating kinase 3 (Homo sapiens), sequence (P27448 whole entry, looked up): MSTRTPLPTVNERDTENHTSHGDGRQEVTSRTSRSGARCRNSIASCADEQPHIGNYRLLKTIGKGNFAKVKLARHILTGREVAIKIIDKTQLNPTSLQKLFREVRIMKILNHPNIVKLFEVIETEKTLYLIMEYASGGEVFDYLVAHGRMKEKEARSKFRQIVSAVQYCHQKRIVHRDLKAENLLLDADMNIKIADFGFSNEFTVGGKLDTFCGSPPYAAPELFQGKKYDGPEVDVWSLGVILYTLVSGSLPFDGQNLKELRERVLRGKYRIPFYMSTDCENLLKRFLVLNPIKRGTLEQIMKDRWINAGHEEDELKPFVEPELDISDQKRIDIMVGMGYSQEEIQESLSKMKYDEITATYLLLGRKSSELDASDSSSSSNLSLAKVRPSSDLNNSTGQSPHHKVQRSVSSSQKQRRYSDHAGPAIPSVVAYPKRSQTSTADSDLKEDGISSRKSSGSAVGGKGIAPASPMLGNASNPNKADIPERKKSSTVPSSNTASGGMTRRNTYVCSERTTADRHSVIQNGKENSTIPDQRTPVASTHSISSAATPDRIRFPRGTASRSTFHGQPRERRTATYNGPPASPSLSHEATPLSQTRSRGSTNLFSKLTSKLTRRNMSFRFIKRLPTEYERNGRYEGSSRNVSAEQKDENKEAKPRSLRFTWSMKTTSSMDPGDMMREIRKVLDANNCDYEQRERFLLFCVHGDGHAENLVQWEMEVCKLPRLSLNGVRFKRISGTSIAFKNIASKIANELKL

SMILES: CN(C)CCOc1ccc(-c2nc(-c3ccncc3)c(-c3ccc4c(c3)CC/C4=N\O)[nH]2)cc1
- % of control [1]: 30%
- % of control [2]: 86%

- % of inhibition [3]: 41%
SMILES: Cc1ccc(-c2ccc3c(ccc4sc5c(c43)NC[C@@H](C)NC5=O)n2)cn1

SMILES: Cc1cc([C@@H](C)Nc2ccccc2C(=O)O)c2nc(N3CCOCC3)cc(=O)n2c1 [AZD-6482]
- % of control [4]: 99%

- IC50 [5]: > 10 µM
SMILES: CCc1cccc(CC)c1NC(=O)c1nn(C)c2c1CCc1cnc(Nc3ccc(C(=O)NC4CCN(C)CC4)cc3OC(F)(F)F)nc1-2

SMILES: COc1cc(N(C)c2ccnc3ccc(C(F)(F)F)cc23)cc(OC)c1OC
- % binding [6]: 86%

SMILES: COc1cc(Nc2nc(C)cc(-c3cnn4nc(OC)ccc34)n2)cc(C(F)(F)F)c1
- IC50 [7]: > 10 µM

- IC50 [8]: > 10 µM
SMILES: CCC(=O)N1CC[C@H](Nc2ncnc3c2CN(c2cnc(OC)c(C(F)(F)F)c2)CC3)C1 [LENIOLISIB]

SMILES: CCC(=O)N1CCN(c2ccc(-n3c(=O)ccc4cnc5ccc(-c6cnc7ccccc7c6)cc5c43)cc2C(F)(F)F)CC1
- % of control [9]: 40%

SMILES: Cc1cc(F)c(C(=O)Nc2cccc(-c3nncn3C(C)C)n2)cc1-n1cnc(C2CC2)c1
- % of control [10]: 90%
